Patent US20220118002A1, “COMPOSITIONS OF MATTER WITH ACTIVITY TO REMOVE LIPOFUSCIN FROM RETINAL CELLS” (Cornell University, priority 2019, published 2022)

Assays:
[1] = tested on: Human retinal pigment epithelium (RPE) cultured cells, ARPE-19, pre-loaded with A2E; test: A2E (lipofuscin bisretinoid) removal assay, fluorescence plate reader; assay type: cell-based; conditions: for removal of lipofuscin bisretinoids (A2E) from retinal cells: 4 mM cyclodextrin, 48 hrs, cells pre-loaded with 5 μM A2E, FIG. 2
[2] = tested on: Epithelial cells pre-loaded with A2E; test: Stoichiometric distribution of A2E between cell lysates and supernatants; assay type: cell-based; conditions: 12.5 mM, 4 hrs, serum free media, FIG. 7
[3] = tested on: lipofuscin (LB) in RPE of DKO mice (ABCA4 and RDH8 mutations); test: In vivo LB removal from eyes by intravitreal injection, RPE-eyecup autofluorescence; parameters: species or system mouse; conditions: FIG. 9; for reduction of the amount of lipofuscin vs vehicle (significance, unpaired T-test): two intravitreal injections one week apart, same doses; for total LB extracted from retinas: two intravitreal injections one week apart: 2 μl 100 mM MβCD, 1 μl 500 mM HPβCD or SBE-βCD, eyes harvested 4 days after second injection
visual acuity of mice = test: Visual acuity, Spatial Frequency (SF) response by OptoMotry; conditions: intravitreal, twice, one week apart, both eyes: 2 μl 100 mM M-βCD, 1 μl 500 mM HP-βCD or SBE-βCD, FIGS. 10A-10B
[4] = tested on: lipofuscin and A2E accumulation in ABCA4-/- mouse; conditions: cited from earlier work
formation of new LB = conditions: oral, animals; cited from earlier work
[5] = tested on: patients diagnosed with Stargardt or AMD; conditions: cited from earlier work
[6] = tested on: lipofuscin in RPE cells of monkey retinas; conditions: oral, one year; cited from earlier work
A2E-loaded RPE cultures = test: Fluorescence microscopy of LB removal from A2E-loaded cells; assay type: cell-based, human
Protocol: […] At the end of the incubation period, fluorescence of A2E inside the cells was monitored by fluorescence microscopy at 100× magnification. Cells were stained with Hoechst stain to visualize nuclei of cells that contained A2E.
FIGS. 4A-4B show the removal of LB with methyl β-Cyclodextrin as determined by fluorescence microscopy. […] Cells were stained with Hoechst stain to visualize nuclei. Fluorescence of A2E inside the cells (unextracted cells) was monitored by fluorescence microscopy at 100× magnification.
Untreated A2E-loaded RPE cultures served as negative controls. A2E-loaded RPE cultures were treated with 7.5 mM of the indicated β-Cyclodextrin compound for 48 hrs. For each cyclodextrin, three separate lots were tested. Lipofuscin (yellow) is visualized by fluorescence microscopy (488 nm/600 nm) using low magnification (10×) objective to capture a large number of cells.
Fluorescence microscopy: LBs are auto-fluorescent molecules on account of the abundant conjugated double bonds in their hydrophobic arms. When excited at 430 nm (blue light) they emit yellow-orange fluorescence peaking at 610 nm. The intensity of the fluorescence is proportional to their amounts. Hoechst blue fluorescence dye was used to stain the nucleus of cells treated with cyclodextrins. […] Each dose was assayed in triplicated and ten random fields were evaluated per well. […]

[7] = tested on: photoreceptor layer (ONL) / retina; test: Retina morphometry and histology (ONL thickness, H&E cross sections); assay type: in vivo, mouse; conditions: intravitreal treatment
Protocol: Morphometric analysis comparing the thickneness of the outer nuclear layer (ONL) in control and SBE-BCD treated animals was performed. The layer of photoreceoptors was selected using Photoshop and ImageJ and thickness was measured.
Stitched images were created using ZEN Blue (Zeiss) from individual fields obtained by color microscopy of hematoxylin and eosin stained paraffin-embedded cross sections of retinas from mice treated with 1 μl vehicle or Sulfo Butyl β-Cyclodextrin.
2 μl 100 mM M-βCD; 1 μl 500 mM HP-3CD; or 1 μl 500 mM SBE-βCD were injected twice, one-week apart, in both eyes and 2 μl H2O were injected intravitreally to age matched controls. To evaluate the visual toxicity of the treatment, the Spatial Frequency response (SF) was determined just before each injection and before sacrificing the mouse, i.e., four days after the second injection. SF is a cone-mediated visual response measured using an OptoMotry (OMT) chamber. Briefly, the mouse standing unrestrained on an elevated platform is surrounded by computer monitors that create a virtual cylinder with black bars on white background.

[8] = long-term oral administration, ABCA4-/-

COC[C@H]1O[C@@H]2O[C@H]3[C@H](OC)[C@@H](OC)[C@@H](O[C@H]4[C@H](OC)[C@@H](OC)[C@@H](O[C@H]5[C@H](OC)[C@@H](OC)[C@@H](O[C@H]6[C@H](OC)[C@@H](OC)[C@@H](O[C@H]7[C@H](OC)[C@@H](OC)[C@@H](O[C@H]8[C@H](OC)[C@@H](OC)[C@@H](O[C@H]1[C@H](OC)[C@H]2OC)O[C@@H]8COC)O[C@@H]7COC)O[C@@H]6COC)O[C@@H]5COC)O[C@@H]4COC)O[C@@H]3COC [2,3,6-tri-O-methyl-β-Cyclodextrin, Heptakis (2,3,6-tri-O-Methyl) β-Cyclodextrin, reference compound]
removal of lipofuscin bisretinoids (A2E) from retinal cells [1]: not effective in promoting LB removal

COC[C@H]1O[C@@H]2O[C@H]3[C@H](O)[C@@H](OC)[C@@H](O[C@H]4[C@H](O)[C@@H](OC)[C@@H](O[C@H]5[C@H](O)[C@@H](OC)[C@@H](O[C@H]6[C@H](O)[C@@H](OC)[C@@H](O[C@H]7[C@H](O)[C@@H](OC)[C@@H](O[C@H]8[C@H](O)[C@@H](OC)[C@@H](O[C@H]1[C@H](O)[C@H]2OC)O[C@@H]8COC)O[C@@H]7COC)O[C@@H]6COC)O[C@@H]5COC)O[C@@H]4COC)O[C@@H]3COC [2,6-di-O-methyl-β-Cyclodextrin, Heptakis (2,6-di-O-Methyl) β-Cyclodextrin, reference compound]
removal of lipofuscin bisretinoids (A2E) from retinal cells [1]: not effective in promoting LB removal

CC(O)COC[C@H]1O[C@@H]2O[C@H]3[C@H](O)[C@@H](O)[C@@H](O[C@H]4[C@H](O)[C@@H](O)[C@@H](O[C@H]5[C@H](O)[C@@H](O)[C@@H](O[C@H]6[C@H](O)[C@@H](O)[C@@H](O[C@H]7[C@H](O)[C@@H](O)[C@@H](O[C@H]8[C@H](O)[C@@H](O)[C@@H](O[C@H]1[C@H](O)[C@H]2O)O[C@@H]8COCC(C)O)O[C@@H]7COCC(C)O)O[C@@H]6COCC(C)O)O[C@@H]5COCC(C)O)O[C@@H]4COCC(C)O)O[C@@H]3COCC(C)O (stereo partly drawn) [2-Hydroxy Propyl β-Cyclodextrin, 2-hydroxypropyl beta-Cyclodextrin]
removal of lipofuscin bisretinoids (A2E) from retinal cells [1]: promoted removal of lipofuscin bisretinoids from retinal cells | distribution of A2E fluorescence between cells and supernatants [2]: all A2E fluorescence that was absent from cells was present in supernatants | reduction of the amount of lipofuscin vs vehicle (significance, unpaired T-test) [3]: effective | visual acuity (Spatial Frequency response) (visual acuity of mice): some animals showing significant impairment of visal response

[2H]C([2H])([2H])C(/C=C/C=C(C)/C=C/C1=C(C)CCCC1(C)C)=C\COC(C)=O [ALK-001, deuterated vitamin A]
visual function by electroretinogram ([4]; ABCA4-/- mouse model): prevented the gradual loss of visual function | reduction of accumulation of A2E [4, 8]: 80% | reduction of accumulation of lipofuscin [4, 8]: 70%

CC1=C(/C=C/C(C)=C/C=C/C(C)=C/C(=O)Nc2ccc(O)cc2)C(C)(C)CCC1 [fenretinide]
formation of new LB (formation of new LB): effective at slowing down the formation of new LB | side effects ([5]; oral): night blindness, and mild reversible skin-dryness | therapeutic effect in patients ([5]; patients already diagnosed with Stargardt or AMD): did not confer a significant therapeutic effect

OC[C@H]1O[C@@H]2O[C@H]3[C@H](O)[C@@H](O)[C@@H](O[C@H]4[C@H](O)[C@@H](O)[C@@H](O[C@H]5[C@H](O)[C@@H](O)[C@@H](O[C@H]6[C@H](O)[C@@H](O)[C@@H](O[C@H]7[C@H](O)[C@@H](O)[C@@H](O[C@H]8[C@H](O)[C@@H](O)[C@@H](O[C@H]9[C@H](O)[C@@H](O)[C@@H](O[C@H]1[C@H](O)[C@H]2O)O[C@@H]9CO)O[C@@H]8CO)O[C@@H]7CO)O[C@@H]6CO)O[C@@H]5CO)O[C@@H]4CO)O[C@@H]3CO [gamma-cyclodextrin, Gamma-Cyclodextrin, reference compound]
removal of lipofuscin bisretinoids (A2E) from retinal cells [1]: did not extract A2E

COCCO[C@@H]1c2ccn3c(C)c(C)nc3c2N[C@H](c2ccccc2)[C@H]1O [soprazan]
elimination of lipofuscin from RPE cells [6]: Successful elimination of lipofuscin from RPE cells

OC[C@H]1O[C@@H]2O[C@H]3[C@H](O)[C@@H](O)[C@@H](O[C@H]4[C@H](O)[C@@H](O)[C@@H](O[C@H]5[C@H](O)[C@@H](O)[C@@H](O[C@H]6[C@H](O)[C@@H](O)[C@@H](O[C@H]7[C@H](O)[C@@H](O)[C@@H](O[C@H]1[C@H](O)[C@H]2O)O[C@@H]7CO)O[C@@H]6CO)O[C@@H]5CO)O[C@@H]4CO)O[C@@H]3CO [α-Cyclodextrin, reference compound]
removal of lipofuscin bisretinoids (A2E) from retinal cells [1]: did not extract A2E

OC[C@H]1O[C@@H]2O[C@H]3[C@H](O)[C@@H](O)[C@@H](O[C@H]4[C@H](O)[C@@H](O)[C@@H](O[C@H]5[C@H](O)[C@@H](O)[C@@H](O[C@H]6[C@H](O)[C@@H](O)[C@@H](O[C@H]7[C@H](O)[C@@H](O)[C@@H](O[C@H]8[C@H](O)[C@@H](O)[C@@H](O[C@H]1[C@H](O)[C@H]2O)O[C@@H]8CO)O[C@@H]7CO)O[C@@H]6CO)O[C@@H]5CO)O[C@@H]4CO)O[C@@H]3CO [β-Cyclodextrin, reference compound]
removal of lipofuscin bisretinoids (A2E) from retinal cells [1]: did not extract A2E

Methyl β-Cyclodextrin
removal of lipofuscin bisretinoids (A2E) from retinal cells [1]: promoted removal of lipofuscin bisretinoids from retinal cells | dose that removed most of the detectable LB deposits ([1]; 24 hrs, FIG. 3A): 10 to 20 µM | dose dependence of A2E removal ([1]; 24 hrs, increasing doses, FIG. 3A): dose-dependent | A2E removal compared to untreated control at lowest tested dose ([1]; 24 hrs, lowest tested dose, FIG. 3A): about 75% | localisation of LB after treatment (A2E-loaded RPE cultures; 7.5 mM, 100× objective, FIGS. 4A-4B): LB was expelled outside the cells | LB fluorescence in cells after treatment (A2E-loaded RPE cultures; 24 hours, 100× magnification, FIG. 3B): completely devoid of the turquoise fluorescence | distribution of A2E fluorescence between cells and supernatants [2]: all A2E fluorescence that was absent from cells was present in supernatants | reduction of the amount of lipofuscin vs vehicle (significance, unpaired T-test) [3]: did not significantly reduce the amount of lipofuscin | total LB extracted from retinas [3]: 18.2%

Sulfobutyl ether β-Cyclodextrin [Sulfo Butyl Ether β-Cyclodextrin]
removal of lipofuscin bisretinoids (A2E) from retinal cells [1]: promoted removal of lipofuscin bisretinoids from retinal cells | distribution of A2E fluorescence between cells and supernatants [2]: all A2E fluorescence that was absent from cells was present in supernatants | reduction of the amount of lipofuscin vs vehicle (significance, unpaired T-test) [3]: effective | total LB extracted from retinas [3]: 42.6% | overall structure of the retinas ([7]; H&E cross sections, FIG. 11B): remained intact | integrity of the photoreceptor layer (ONL) ([7]; ONL thickness, FIG. 11A): did not compromise the integrity of the photoreceptor layer (ONL) | visual acuity (Spatial Frequency response) (visual acuity of mice): well tolerated showing indistinguishable SF from water treated and non-injected negative controls
